{"source": "patent US5942489A", "about": "“HGH-RH(1-29)NH2 analogues having antagonistic activity” (The Administrators of the Tulane Educational Fund, priority 1996, dated 1999)", "key": {"GH releasing activity": {"tested_on": "GH releasing activity", "conditions": "cited from earlier work; for GH releasing activity relative to GH-RH: percent of that of GH-RH; for bioactivity of shorter analogues: compared with hGH-RH(1-29)NH2"}, "[1]": {"tested_on": "GH release induced by 1 nM hGH-RH(1-29)NH2 in superfused rat pituitary cells", "assay": "Inhibition of hGH-RH(1-29)NH2-induced GH release in superfused rat pituitary system", "assay_type": "cell-based", "conditions": "100 nM peptide", "protocol": "Superfused Rat Pituitary System. The analogues were tested in vitro in a test described earlier (S. Vigh and A. V. Schally, Peptides 5:241-[…], 1984) with modification (Z. Rekasi and A. V. Schally, P. N. A. S. 90:2146-2149, 1993).\nBriefly, the cells are preincubated with peptides for 9 minutes (3 mL) at various concentrations. Immediately after the incubation, 1 nM hGH-RH(1-29)NH2 is administered for 3 minutes (1 mL) [0 minute response]. To check the duration of the antagonistic effect of the analogue, 1 nM hGH-RH(1-29)NH2 is applied 30, 60, 90, and 120 minutes later for 3 minutes [30, 60, 90, 120 min responses]. Net integral values of the GH responses are evaluated. GH responses are compared to and expressed as percent of the original GH response induced by 1 nM GH-RH(1-29)NH2. The effect of the new antagonists are compared to that of [Ac-Tyr^1,D-Arg^2 ]hGH-RH(1-29)NH2, the \"Standard antagonist\".\nGrowth Hormone Radio-immunoassay. Rat GH levels in aliquots of undiluted and diluted superfusion samples were measured by double-antibody radioimmunoassay using materials supplied by the National Hormone and Pituitary Program, Baltimore, Md. The results of RIA were analyzed with a computer program developed in our institute (V. Csernus and A. V. Schally, Harwood Academic (Greenstein, B. C. ed., London, pp. 71-109, 1991), hereby incorporated by reference. Inter-assay variation was less than 15% and intra-assay variation was less than 10%."}, "[2]": {"target": "T1, rat pituitary GH-RH receptors (Rattus norvegicus, UniProt Q02644)", "T1 construct": "from tissue; host or cells: anterior pituitary of male Sprague-Dawley rats, crude membranes", "T1 sequence (Q02644 23-464)": "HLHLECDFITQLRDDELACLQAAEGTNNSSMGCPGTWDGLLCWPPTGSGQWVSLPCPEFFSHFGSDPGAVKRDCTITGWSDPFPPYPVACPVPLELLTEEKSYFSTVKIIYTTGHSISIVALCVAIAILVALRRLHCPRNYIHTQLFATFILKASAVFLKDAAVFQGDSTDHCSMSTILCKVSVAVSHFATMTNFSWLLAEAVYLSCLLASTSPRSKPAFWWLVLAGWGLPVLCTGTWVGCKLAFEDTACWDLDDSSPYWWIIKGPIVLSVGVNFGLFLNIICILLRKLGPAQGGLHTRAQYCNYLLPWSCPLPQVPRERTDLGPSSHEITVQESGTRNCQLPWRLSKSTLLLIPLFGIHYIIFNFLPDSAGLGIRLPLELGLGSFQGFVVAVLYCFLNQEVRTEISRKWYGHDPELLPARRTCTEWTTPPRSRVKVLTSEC", "assay": "GH-RH radioreceptor binding assay, competition with labelled [His1,Nle27]hGH-RH(1-32)NH2", "conditions": "for Ki: rat anterior pituitary membrane homogenates, read-out: Ki values, K", "protocol": "GH-RH Binding Assay. A sensitive radioreceptor binding assay was developed to determine the binding characteristics of the antagonists of GH-RH (G. Halmos, A. V. Schally et al., Receptor 3, 87-97, 1993), hereby incorporated by reference. The assay is based on binding of labelled [His^1, Nle^27 ]hGH-RH(1-32)NH2 to rat anterior pituitary membrane homogenates. Iodinated derivatives of [His^1, Nle^27 ]hGH-RH(1-32)NH2 are prepared by the chloramine-T method (F. C. Greenwood et al., Biochemistry 89:114-123, 1963), hereby incorporated by reference. Pituitaries from male Sprague-Dawley rats (250-300 g) are used to prepare crude membranes. For saturation binding analyses, membrane homogenates are incubated with at least 6 concentrations of [His^1,125I-Tyr^10,Nle^27 ]hGH-RH(1-32)NH2, ranging from 0.005 to 0.35 nM in the presence or absence of excess unlabelled peptide (1 μM).\nThe pellet is counted for radioactivity in a γ-counter. The affinities of the antagonist peptides tested to rat pituitary GH-RH receptors are determined in competitive binding experiments. The final binding affinities are estimated by Ki (dissociation constant of the inhibitor-receptor complex) and are determined by the Ligand PC computer program of Munson and Rodbard as modified by McPherson. Relative affinities compared to [Ac-Tyr^1, D-Arg^2 ]hGH-RH(1-29)NH2, the Standard antagonist, are calculated as the ratio of Ki of the tested GH-RH antagonist to the Ki of the Standard antagonist."}, "[3]": {"tested_on": "SW-1990 human pancreatic cancers", "assay": "SW 1990 human pancreatic cancers in nude mice", "assay_type": "in vivo", "conditions": "dose 10, 44 days treatment", "protocol": "Small piees of an SW-1990 rumor growing in a nude mouse were transplated s.c. into the right flanks of 60 nu/nu male nude mice. Ten days after transplantation, 40 mice with well growing tumors were groupled into 4 groups with equal average tumor volume (16 mm^3) in each group. Treatment started 13 days after transplantation and was continuted for 44 days. The tumors were measured and volume was calculated weekly. Tumor volume changes are shown in Table V. On day 45 of treatment the mice were sacraficed under Metofane anesthesia by exsanguination from abdominal aorta. Blood was collected, tumor and organ weights were determined."}}, "note": "Where a SMILES comes first, the peptide text is derived from it. Where no end group is shown, it is not given here. [ ]: non-standard residue; d: D form. The star is where a group is joined. Phe(4-Cl) = N[C@@H](Cc1ccc(Cl)cc1)C(=O)O; Cit = NC(=O)NCCC[C@H](N)C(=O)O; Agmatine = N=C(N)NCCCCN*; Nle = CCCC[C@H](N)C(=O)O; Abu = CC[C@H](N)C(=O)O; PhAc = O=C(Cc1ccccc1)*", "data": [{"compound": "[D-Tyr^1 ]GH-RH", "values": [{"measurement": "GH releasing activity relative to GH-RH", "setting": "GH releasing activity", "result": "2-3%"}]}, {"compound": "[Ac-Tyr^1 ]GH-RH (Ac-YADAIFTNSYRKVLGQLSARKLLQDIMSRQQGESNQERGARARL; ends and bridges not checked; UniProt P01286 32-75, looked up)", "values": [{"measurement": "GH releasing activity relative to GH-RH", "setting": "GH releasing activity", "result": "2-3%"}]}, {"compound": "CC[C@H](C)[C@H](NC(=O)[C@H](C)NC(=O)[C@H](CC(=O)O)NC(=O)[C@@H](CCCNC(=N)N)NC(=O)[C@H](Cc1ccc(O)cc1)NC(C)=O)C(=O)N[C@@H](Cc1ccccc1)C(=O)N[C@H](C(=O)N[C@@H](CC(N)=O)C(=O)N[C@@H](CO)C(=O)N[C@@H](Cc1ccc(O)cc1)C(=O)N[C@@H](CCCNC(=N)N)C(=O)N[C@@H](CCCCN)C(=O)N[C@H](C(=O)N[C@@H](CC(C)C)C(=O)NCC(=O)N[C@@H](CCC(N)=O)C(=O)N[C@@H](CC(C)C)C(=O)N[C@@H](CO)C(=O)N[C@@H](C)C(=O)N[C@@H](CCCNC(=N)N)C(=O)N[C@@H](CCCCN)C(=O)N[C@@H](CC(C)C)C(=O)N[C@@H](CC(C)C)C(=O)N[C@@H](CCC(N)=O)C(=O)N[C@@H](CC(=O)O)C(=O)N[C@H](C(=O)N[C@@H](CCSC)C(=O)N[C@@H](CO)C(=O)N[C@@H](CCCNC(=N)N)C(N)=O)[C@@H](C)CC)C(C)C)[C@@H](C)O", "note": "[Standard antagonist, [Ac-Tyr^1,D-Arg^2]hGH-RH(1-29)NH2] (Ac-Y[dR]DAIFTNSYRKVLGQLSARKLLQDIMSR-NH2)", "values": [{"measurement": "Inhibition of GH release (%) 0 min", "setting": "[1]; 0 min response", "result": 62.1, "unit": "%"}, {"measurement": "Inhibition of GH release (%) 30 min", "setting": "[1]; 30 min response", "result": 2.5, "unit": "%"}, {"measurement": "Inhibition of GH release (%) 60 min", "setting": "[1]; 60 min response", "result": 19, "unit": "%"}, {"measurement": "Ki", "setting": "[2]", "result": "3.37 ± 0.14", "unit": "nM"}, {"measurement": "relative affinities (R.A.)", "setting": "[2]; relative to Standard antagonist (=1)", "result": 1}]}, {"compound": "CCCC[C@H](NC(=O)[C@@H](NC(=O)[C@H](CC(=O)O)NC(=O)[C@H](CCC(N)=O)NC(=O)[C@H](CC(C)C)NC(=O)[C@H](CC(C)C)NC(=O)[C@H](CCCCN)NC(=O)[C@H](CCCNC(=N)N)NC(=O)[C@H](C)NC(=O)[C@H](CO)NC(=O)[C@H](CC(C)C)NC(=O)[C@H](CCC(N)=O)NC(=O)[C@H](C)NC(=O)[C@H](CC(C)C)NC(=O)[C@@H](NC(=O)[C@H](CCCCN)NC(=O)[C@H](CCCNC(=N)N)NC(=O)[C@H](Cc1ccc(O)cc1)NC(=O)[C@H](CO)NC(=O)[C@H](CC(N)=O)NC(=O)[C@@H](NC(=O)[C@H](Cc1ccc(Cl)cc1)NC(=O)[C@@H](NC(=O)[C@H](C)NC(=O)[C@H](CC(=O)O)NC(=O)[C@@H](CCCNC(=N)N)NC(=O)[C@H](Cc1ccc(O)cc1)NC(=O)Cc1ccccc1)[C@@H](C)CC)[C@@H](C)O)C(C)C)[C@@H](C)CC)C(=O)N[C@@H](CC(=O)O)C(=O)NCCCCNC(=N)N", "note": "[Peptide 5, [PhAc^0,D-Arg^2,Phe(pCl)^6,Ala^15,Nle^27,Asp^28]hGH-RH(1-28)Agm] (PhAc-Y[dR]DAI[Phe(4-Cl)]TNSYRKVLAQLSARKLLQDI[Nle]D-Agmatine)", "values": [{"measurement": "Ki", "setting": "[2]", "result": 0.096, "unit": "nM"}]}, {"compound": "CCCC[C@H](NC(=O)[C@@H](NC(=O)[C@H](CC(=O)O)NC(=O)[C@H](CCC(N)=O)NC(=O)[C@H](CC(C)C)NC(=O)[C@H](CC(C)C)NC(=O)[C@H](CCCCN)NC(=O)[C@H](CCCNC(=N)N)NC(=O)[C@H](C)NC(=O)[C@H](CO)NC(=O)[C@H](CC(C)C)NC(=O)[C@H](CCC(N)=O)NC(=O)[C@H](CC)NC(=O)[C@H](CC(C)C)NC(=O)[C@@H](NC(=O)[C@H](CCCCN)NC(=O)[C@H](CCCNC(=N)N)NC(=O)[C@H](Cc1ccc(O)cc1)NC(=O)[C@H](CO)NC(=O)[C@H](CC)NC(=O)[C@@H](NC(=O)[C@H](Cc1ccc(Cl)cc1)NC(=O)[C@@H](NC(=O)[C@H](C)NC(=O)[C@H](CC(=O)O)NC(=O)[C@@H](CCCNC(=N)N)NC(=O)[C@H](Cc1ccc(O)cc1)NC(=O)Cc1ccccc1)[C@@H](C)CC)[C@@H](C)O)C(C)C)[C@@H](C)CC)C(=O)N[C@@H](CO)C(=O)N[C@@H](CCCNC(N)=O)C(N)=O", "note": "[Peptide 3, [PhAc^0,D-Arg^2,Phe(pCl)^6,Abu^8,15,Nle^27,Cit^29]hGH-RH(1-29)-NH2] (PhAc-Y[dR]DAI[Phe(4-Cl)]T[Abu]SYRKVL[Abu]QLSARKLLQDI[Nle]S[Cit]-NH2)", "values": [{"measurement": "Ki", "setting": "[2]", "result": "0.301 ± 0.14", "unit": "nM"}]}, {"compound": "[PhAc^0,D-Arg^2,Phe(pCl)^6,Abu^15,Nle^27 ]hGH-RH(1-28)Agm [Peptide B]", "values": [{"measurement": "Final Tumor Volume mm^3", "setting": "[3]", "result": "612 ± 220", "unit": "mm^3"}, {"measurement": "Tumor weights", "setting": "[3]", "result": "931 ± 330", "unit": "mg"}]}, {"compound": "GH-RH(1-27)NH2 (YADAIFTNSYRKVLGQLSARKLLQDIM-NH2; UniProt P01286 32-58, looked up, fragment)", "values": [{"measurement": "bioactivity of shorter analogues", "setting": "GH releasing activity", "result": "substantially lower bioactivity"}]}, {"compound": "GH-RH(1-28)NH2 (YADAIFTNSYRKVLGQLSARKLLQDIMS-NH2; UniProt P01286 32-59, looked up, fragment)", "values": [{"measurement": "bioactivity of shorter analogues", "setting": "GH releasing activity", "result": "substantially lower bioactivity"}]}, {"compound": "CCCC[C@H](NC(=O)[C@@H](NC(=O)[C@H](CC(=O)O)NC(=O)[C@H](CCC(N)=O)NC(=O)[C@H](CC(C)C)NC(=O)[C@H](CC(C)C)NC(=O)[C@H](CCCCN)NC(=O)[C@H](CCCNC(=N)N)NC(=O)[C@H](C)NC(=O)[C@H](CO)NC(=O)[C@H](CC(C)C)NC(=O)[C@H](CCC(N)=O)NC(=O)[C@H](C)NC(=O)[C@H](CC(C)C)NC(=O)[C@@H](NC(=O)[C@H](CCCCN)NC(=O)[C@H](CCCNC(=N)N)NC(=O)[C@H](Cc1ccc(O)cc1)NC(=O)[C@H](CO)NC(=O)[C@H](CC)NC(=O)[C@@H](NC(=O)[C@H](Cc1ccc(Cl)cc1)NC(=O)[C@@H](NC(=O)[C@H](C)NC(=O)[C@H](CC(=O)O)NC(=O)[C@@H](CCCNC(=N)N)NC(=O)[C@H](Cc1ccc(O)cc1)NC(=O)Cc1ccccc1)[C@@H](C)CC)[C@@H](C)O)C(C)C)[C@@H](C)CC)C(=O)N[C@@H](CO)C(=O)N[C@@H](CCCNC(=N)N)C(N)=O", "note": "[Peptide 11, [PhAc^0,D-Arg^2,Phe(pCl)^6,Abu^8,Ala^15,Nle^27],hGH-RH(1-29)NH2] (PhAc-Y[dR]DAI[Phe(4-Cl)]T[Abu]SYRKVLAQLSARKLLQDI[Nle]SR-NH2)", "values": [{"measurement": "Ki", "setting": "[2]", "result": "0.059 ± 0.001", "unit": "nM"}]}, {"compound": "hGH-RH(2-44) (ADAIFTNSYRKVLGQLSARKLLQDIMSRQQGESNQERGARARL; ends and bridges not checked; UniProt P01286 33-75, looked up, fragment) [GH-RH without its N-terminus residue]", "values": [{"measurement": "GH releasing activity relative to GH-RH", "setting": "GH releasing activity", "result": 0.1, "unit": "%"}]}]}
